The nature of data set [1]: PAMPA gut passive permeability. As to conditions: for -log Pe: PAMPA gut, 4 h. Type of data set: in vitro ADME. The method, then: (§1) Parallel Artificial Membrane Permeability Assay was performed to analyze both blood–brain barrier (BBB) and gut passive permeability. All materials for PAMPA were purchased from Pion, Inc (Billerica, MA, USA). Both the gut and BBB assays were performed according to the manufacturer’s instructions. Briefly, test compounds and standards were prepared at 10 mM concentrations in DMSO. For the gut assay, Prisma HT buffer was adjusted to pHs 5, 6.2, and 7.4 by adding 0.5 M NaOH. In the deepwell plate provided by Pion, 1 mL of each pH-adjusted buffer was added to separate wells. For each pH, 5 µL of the sample was added to the 1 mL of buffer then mixed thoroughly with a pipette, diluting the sample to a final concentration of 50 µM. Next, 200 µl of the diluted sample was added to the donor (bottom) plate from the Pion sandwich assay, 5 µL of GIT lipid matrix was added to the membrane on the bottom of the acceptor plate, and 200 µL of acceptor sink buffer was added in each well of the acceptor plate. The sandwich was assembled, and the plate incubated at room temperature for 4 h undisturbed. In BBB assays, compounds (10 mM) were diluted to final concentrations of 50 µM in Prisma HT Buffer (pH = 7.4). The PAMPA sandwich was created with the donor (bottom), BBB artificial membrane, and brain sink buffer as the acceptor (top). The assay was performed for 1 h at room temperature with shaking (60 µm) using the manufacturer-supplied GIT Box. After incubation, the UV profiles of the donor and acceptor plates were read on the SpectraMax plate reader connected to the PAMPA software. PAMPA software calculated the –log Pe values for each compound and standard using the UV profiles of the donor and acceptor plates.
Background: The PAMPA barrier holds no transporters, so it reflects passive diffusion.

In data set [2] the test system is nitric oxide production in LPS-stimulated BV-2 murine microglia. Nature of the data set: Nitric oxide quantification (Griess assay) in LPS-stimulated BV-2. Type of data set: cell-based. As to conditions: for Mean Diff., LPS (1 μg/mL) vs. compound, NOS production: Tukey's multiple comparisons test; for nitric oxide concentration: 10 μM compound + LPS 1 μg/mL. The method, then: (§2) As previously published, BV-2 cells were seeded at a density of 100,000 cells/mL in 24-well plates. […] Media were collected, aliquoted for nitric oxide and cytokine analysis.
Nitric oxide was detected in BV-2 culture media following the stimulation of LPS for 24 h from the previously described experiment by way of the Griess Assay (Promega, Madison WI), according to the manufacturer’s protocol.

Data set [3] has as its system TNF-α release from LPS-stimulated BV-2 murine microglia. Nature of the data set: TNF-α ELISA in LPS-stimulated BV-2 media. The class given is cell-based. As to conditions: for reduction of TNF-α compared to LPS: LPS 1 μg/mL; for Mean Diff., LPS (1 μg/mL) vs. compound, TNF-α: Tukey's multiple comparisons test; for effect on TNF-α production (in words): 20 μM and 10 μM, compared to LPS-induced treatment. How it is done: as §2
(§3) IL-6 and TNF-α were measured from BV-2 media using Enzyme Linked Immunosorbent Assay (ELISA) provided by Biolegend (San Diego, CA, USA).

The nature of data set [4]: PAMPA BBB passive permeability. The class given is in vitro ADME. To be noted: for -log Pe: PAMPA BBB, pH 7.4, 50 µM, 1 h; for PAMPA BBB permeability (in words): pH 7.4. The method, then:
as §1

For data set [5], the system named is IL-6 release from LPS-stimulated BV-2 murine microglia. Nature of the data set: IL-6 ELISA in LPS-stimulated BV-2 media. To be noted: for reduction of IL-6 production compared to LPS: LPS 1 μg/mL; for Mean Diff., LPS (1 μg/mL) vs. compound, IL-6: Tukey's multiple comparisons test; for IL-6 concentration: 10 μM compound + LPS 1 μg/mL. The class given is cell-based. The method, then: as §2, §3
A general note: An ELISA detects its analyte on a solid surface through an enzyme-linked reagent.

Data set [6] has as its system nitric oxide production in LPS-stimulated BV-2 murine microglia. The data set can be described thus: Nitric oxide quantification (Griess assay) in LPS-stimulated BV-2. As to conditions: 1 h pre-treatment, LPS 1 μg/mL 23 h. Type of data set: cell-based.

Several values for one entry are separate records, joined by “and”; a condition that tells them apart may be missing. Equal entries are not always repeated.

As for `Cc1cc(=O)n(-c2ccccc2)n1C` [Antipyrine, reference compound], in data set [1] (pH 5), the “PAMPA gut permeability (in words)” value is on record as “medium”.
Turning to `CNC(=C[N+](=O)[O-])NCCSCc1ccc(CN(C)C)o1` [Ranitidine, ranitidine, reference compound], the “PAMPA gut permeability (in words)” value in data set [1] (pH 5.0, 6.2 and 7.4) is “low”.
In the case of “lipopolysaccharide [LPS, reference compound]”, the “nitric oxide species concentration” value in data set [2] (LPS 1 μg/mL alone) is 41.5 ± 5.6 µM and 51.01 µM. Besides, the TNF-α concentration in data set [3] (LPS 1 μg/mL alone) was 687.7 ± 8.0 pg/mL and 518.4 pg/mL.
As to `O=c1c(-c2ccc(O)cc2)coc2cc(O)cc(O)c12` [GEN, genistein], in data set [4], the “-log Pe” value was determined as 4.26 ± 0.16. Further, the “PAMPA BBB permeability (in words)” value in data set [4] was “Intermediate BBB permeability”. Moreover, the “Mean Diff., LPS (1 μg/mL) vs. compound, NOS production” value in data set [2] (10 μM) came to 14.41; in data set [2] (20 μM) it was 26.17. For the same compound, the “reduction of TNF-α compared to LPS” value in data set [3] (10 μM) came out at 16.6%; in data set [3] (20 μM) it was 29.1%. The “Mean Diff., LPS (1 μg/mL) vs. compound, TNF-α” value in data set [3] (10 μM) was found to be 113.8; in data set [3] (20 μM) it was 199.8. Besides, the “reduction of IL-6 production compared to LPS” value (from here on “reduction of IL-6 production”) in data set [5] (10 μM) was determined as 34.0%; in data set [5] (20 μM) it was 80.4%. The results for the “Mean Diff., LPS (1 μg/mL) vs. compound, IL-6” value in data set [5] (10 μM) and in data set [5] (20 μM) were 35.15 and 83.38, respectively. The “reduction of nitric oxide compared to LPS alone” value (“reduction of nitric oxide” below) is 38% in data set [6] (10 μM) and 68% in data set [6] (20 μM).
With `Oc1ccc([C@H]2COc3cc(O)ccc3C2)cc1` [EQ, equol], the “-log Pe” value is 4.35 ± 0.11 in data set [1] (pH 5, 50 µM); 4.20 ± 0.02 in data set [1] (pH 6.2, 50 µM); 3.52 ± 0.20 in data set [4]. The “PAMPA BBB permeability (in words)” value in data set [4] is on record as “high permeability”. Also, the results for the “Mean Diff., LPS (1 μg/mL) vs. compound, NOS production” value in data set [2] (10 μM) and in data set [2] (20 μM) were 6.216 and 8.47, respectively. The “Mean Diff., LPS (1 μg/mL) vs. compound, TNF-α” value in data set [3] (10 μM) worked out at 57.03; in data set [3] (20 μM), 72.78. Further, the “effect on TNF-α production (in words)” value in data set [3] is “similar, albeit less potent, protective abilities”. Also, the figures for the “Mean Diff., LPS (1 μg/mL) vs. compound, IL-6” value in data set [5] (10 μM) and in data set [5] (20 μM) were 10.39 and 19.48, respectively. For the same compound, the “reduction of nitric oxide” value in data set [6] (20 μM) is reported as 22%.
As to `O=c1c(-c2ccc(O)cc2)coc2cc(O)ccc12` [DAI, daidzein], the “PAMPA gut permeability (in words)” value in data set [1] (pH 5.0, 6.2 and 7.4) was “most permeable at pHs 5 and 6.2”. Also, the “Mean Diff., LPS (1 μg/mL) vs. compound, NOS production” value in data set [2] (10 μM) came to 4.129; in data set [2] (20 μM), 9.223. The entries for the “Mean Diff., LPS (1 μg/mL) vs. compound, TNF-α” value in data set [3] (10 μM) and in data set [3] (20 μM) were 57.91 and 70.55, respectively. In addition, the “effect on TNF-α production (in words)” value in data set [3] is on record as “similar, albeit less potent, protective abilities”. Moreover, the “Mean Diff., LPS (1 μg/mL) vs. compound, IL-6” value stood at 17.26 in data set [5] (10 μM) and 20.68 in data set [5] (20 μM). Besides, in data set [6] (20 μM), the “reduction of nitric oxide” value was determined as 24%.
As to `CC(C(=O)O)c1cccc(C(=O)c2ccccc2)c1` (stereo not drawn) [Ketoprofen, ketoprofen, reference compound], the “PAMPA gut permeability (in words)” value in data set [1] (pH 5.0, 6.2 and 7.4) is “variable permeability with pH change”.
For `OC[C@H](Cc1cccc(O)c1)[C@H](CO)Cc1cccc(O)c1` [ED, enterodiol], the “PAMPA gut permeability (in words)” value in data set [1] (pH 5.0, 6.2 and 7.4) is recorded as “lowest permeability of all test compounds”. The “PAMPA BBB permeability (in words)” value in data set [4] is reported as “low permeability”. The nitric oxide concentration in data set [2] came out at 46.65 µM. Further, the “Mean Diff., LPS (1 μg/mL) vs. compound, NOS production” value in data set [2] (10 μM) was 4.354. Also, the TNF-α concentration in data set [3] (10 μM compound + LPS 1 μg/mL) amounted to 515.8 pg/mL. In addition, in data set [3] (10 μM), the “reduction of TNF-α compared to LPS” value turned out to be 0.5% and the “Mean Diff., LPS (1 μg/mL) vs. compound, TNF-α” value amounted to 2.638. For the same compound, in data set [5], the IL-6 concentration stood at 690.6 pg/mL. For the same compound, in data set [5] (10 μM), the “reduction of IL-6 production” value was “approximately 3.74%” and the “Mean Diff., LPS (1 μg/mL) vs. compound, IL-6” value is on record as -24.9. Also, in data set [6] (10 μM), the “reduction of nitric oxide” value was about 8.54%.
For `COc1cc(C[C@@H](CO)[C@H](CO)Cc2ccc(O)c(OC)c2)ccc1O` [SECO, secoisolariciresinol], the “PAMPA gut permeability (in words)” value in data set [1] (pH 5.0, 6.2 and 7.4) is given as “moderate permeability”. In addition, the “PAMPA BBB permeability (in words)” value in data set [4] is “low permeability”. The nitric oxide concentration in data set [2] is 46.35 µM. Besides, the “Mean Diff., LPS (1 μg/mL) vs. compound, NOS production” value in data set [2] (10 μM) is 4.653. Further, in data set [3] (10 μM compound + LPS 1 μg/mL), the TNF-α concentration is reported as 497.8 pg/mL. For the same compound, in data set [3] (10 μM), the “reduction of TNF-α compared to LPS” value is 3.97% and the “Mean Diff., LPS (1 μg/mL) vs. compound, TNF-α” value is 20.62. Moreover, in data set [5], the IL-6 concentration is on record as 672.8 pg/mL. Also, in data set [5] (10 μM), the “reduction of IL-6 production” value is 1.05% and the “Mean Diff., LPS (1 μg/mL) vs. compound, IL-6” value is given as -7.108. Further, the “reduction of nitric oxide” value in data set [6] (10 μM) is on record as “approximately 9.13%”.
Take `O=C1OC[C@H](Cc2cccc(O)c2)[C@H]1Cc1cccc(O)c1` [EL, enterolactone]: the “-log Pe” value in data set [1] (pH 5, 50 µM) was determined as 4.27 ± 0.05. The “-log Pe” value in data set [1] (pH 6.2, 50 µM) is 4.37 ± 0.02. In addition, in data set [4], the “-log Pe” value worked out at 3.97 ± 0.14 and the “PAMPA BBB permeability (in words)” value is “high permeability”. Also, in data set [2], the nitric oxide concentration came out at 35.67 µM. Also, in data set [2] (10 μM), the “Mean Diff., LPS (1 μg/mL) vs. compound, NOS production” value is on record as 15.34. For the same compound, in data set [3] (10 μM compound + LPS 1 μg/mL), the TNF-α concentration amounted to 365.6 pg/mL. For the same compound, in data set [3] (10 μM), the “reduction of TNF-α compared to LPS” value was 29.47% and the “Mean Diff., LPS (1 μg/mL) vs. compound, TNF-α” value was determined as 152.8. Besides, the IL-6 concentration in data set [5] was 489.9 pg/mL. Further, in data set [5] (10 μM), the “reduction of IL-6 production” value is recorded as about 26.41% and the “Mean Diff., LPS (1 μg/mL) vs. compound, IL-6” value amounted to 175.8. In addition, the “reduction of nitric oxide” value in data set [6] (10 μM) is about 30.07%.

Source of the values: article PMC6523162 (Metabolites, 2019).
